Data taken from US20250099442A1, “COMPOUNDS FOR USE IN TREATING NEUROLOGICAL DISORDERS” (Prothena Biosciences Limited, priority 2021, published 2025).

Target: DYRK1A (Homo sapiens (Human), UniProt Q13627)
Experiment: DYRK1A Inhibition Assay
Assay type: biochemical
Settings: Compounds of Formula (I); DYRK1A 1 nM, ATP 20 μM, Ser/Thr 18 peptide 2 μM, 90 minutes; read-out: DYRK1 IC50
Description: • DYRK1A—Invitrogen #PV4105 • Ser/Thr 18 peptide—Invitrogen #PR8227U • Phos-Ser/Thr 18 peptide—Invitrogen #PR8229U • Assay plate—PerkinElmer #6007279 • ATP—Sigma #A7699-5G • Development reagent A—Invitrogen #PR5194B • Development buffer—Invitrogen #PR4876B
• 1. Test compounds were diluted to 1 mM in DMSO • 2. Stock was further diluted 3-fold using Echo platform • 3. 100 nL of DMSO into Columns 1 and 24 and 100 nL of compounds dilutions to Columns 2-23 in a plate.
• 1. Add 5 μL enzyme & substrate mixture to each well in Column 2-23 and A24-H24 wells of the 384-well assay plate; • 2. Add 5 μL 0% Phosphorylation control to A1-H1 and I24-P24 wells of the assay plate; • 3. Add 5 μL 100% Phosphorylation control to I1-P1 wells of the assay plate; • 4. Spin the assay plate (1000 rpm, 1 minute @23° C.); • 5. Incubate enzyme with compounds for 15 minutes at 23° C.; • 6. Add 5 μL ATP solution to each well of the assay plate; • 7. Spin the plate (1000 rpm, 1 minute @23° C.); • 8. Incubate the assay plate for 90 minutes at 23° C.; • 9. Add 10 μL Development reagent A to each well of the assay plate; • 10. Centrifuge the plate at 1000 rpm about 15 seconds and seal a film over assay plate. Incubate the assay plate for 30 minutes at 23° C. • 11. Read assay plates on Envision (see Tables A and B).
Final Compound Concentrations […]

How did the IC50 turn out when C(#CC1CCNCC1)c1ccc2c(-c3ccncc3)c[nH]c2n1 [Compound 97] was run?
The IC50 was 100 to 1000 nM.
